Results from US7498408B2, “Ryanodine receptor polypeptides” (E. I. du Pont de Nemours and Company, priority 2002, dated 2009).

Legend:
[1] = tested on: native cockroach ryanodine receptors (in embryonic neuronal cells); assay: Calcium release assay, calcium imaging in primary embryonic cockroach neuronal cells; type: cell-based, Periplaneta americana; conditions: for Calcium Release (P. americana): known ryanodine receptor agents, native receptors in embryonic neuronal cells, result in words
Excerpt: Embryonic neuronal cultures of the American cockroach Periplaneta americana were established, with minor modifications, following the method of Beadle and Lees (1988) (in Cell Culture Approaches to Invertebrate Neuroscience, Academic Press, New York, pp 123-127). Briefly, 26-27-day old oothecae were collected, surface-sterilized and cut open along a line one-third of the distance below the dorsal midline. The heads were removed and placed in Schneider's Drosophila medium (Invitrogen Life Technologies™, Carlsbad, Calif.). Using fine forceps 40 brains were individually removed and placed in a small glass vial containing 700 μl of ‘5+4’ medium (‘5+4’ medium contained 5 parts Schneider's Drosophila medium plus 4 parts roach Basal Medium Eagle, with Earle's salts (BME, Sigma™, St. Louis, Mo.). Roach BME (with Earle's salts) contained 5 parts Hepes (1 M), 1 part penicillin/streptomycin and 44 parts BME (with Earle's salts). ‘5+4’ medium was made fresh and sterile filtered (0.2 μm filter) just prior to use). The brains were dissociated by sequential trituration as follows: 1) brains were passed through a standard Pasteur pipette 10 times; 2) the resulting tissue suspension was passed an additional 5 times through a Pasteur pipet with tip flamed to about half of its original diameter; 3) a final 5 passes were performed using a Pasteur pipet with tip flamed to slightly less than half of its original diameter. A repeat pipettor was used to dispense a 5 μl volume of the resulting suspension into the center of each well of a 96-well, glass-bottom plate previously coated with poly-L-lysine (0.2 mg/ml solution). Cells attached to the bottom of the wells during a 50 min incubation at 27-29° C. 150 ul of a 1:1 mixture of Leibovitz's L-15 medium and Yunker's modified Grace's medium was added, and plates were maintained in a humid incubator at 27-29° C. until use. After cells were allowed to attach wells were filled with a 1:1 mixture of Leibovitz's L-15 medium and Yunker's modified Grace's medium (Leibovitz's L-15 and Grace's medium were obtained from Invitrogen Life Technologies™, Carlsbad, Calif. and Yunker's modified Grace's medium was made with Grace's medium modified by addition of 5 mg L-methionine, 10 mg L-alanine, 182 mg MgCl26H20, 1 g Albumin Fraction V, 7 ml Fetal bovine serum, 10 ml Chick embryo extract, 2 ml Penicillin/Streptomycin, and 2 mg 20-hydroxyecdysone (prepared in ethanol prior to addition) to a final volume of 100 ml and sterile filtered (0.2 μm filter)). Cells were maintained in a high humidity incubator at 29° C. until testing.
Cells were rinsed in standard physiological saline having the following composition (mM): NaCl 190; CaCl2 9; KCl 3.1; probenicid 1; Tris buffer 10; pH 7.2. Cells were then bathed in standard physiological saline containing the calcium sensitive fluoroprobe Fluo4 AM (2 μM) and Pluronic F127 (0.002%) for 45 min. Cells were then rinsed in standard physiological saline for at least 15 min prior to testing. Within the hour prior to testing, standard physiological saline was replaced with standard physiological saline containing the organic cation channel blocker pimozide (10 μM), to inhibit influx of external calcium through voltage-gated calcium channels. The 96-well plate was placed on a PriorTm motorized stage mounted onto a Nikon Diaphot microscope and imaged using a 20× Fluor objective (NA 0.75). Individual wells from the 96-well plate were sequentially excited with light at 495 nm, and the emitted fluorescence at 530 nm was detected using a Hamamatsu ORCA ER digital camera with 2 pixel binning (image size 672×512 pixels).
Acquisition control, image processing and image analysis were conducted using Universal Imaging Corporation's MetaMorph™ imaging software (Universal Imaging, West Chester, Pa.). A series of 3 “control” images were acquired for each well. Experimental compounds were added followed by acquisition of 4 “experimental” images for each well. […]

[2] = target: cockroach ryanodine receptor (roach femoral muscle membranes) (Periplaneta americana, UniProt Z9HFG3YSF4); assay: Radioligand displacement ([3H]-GN analog Cpd 1) from roach femoral muscle membranes; conditions: for IC50: read-out: Displacement IC50 (nM) P. americana, displacement of [3H]-Cpd 1, roach muscle membranes, 60 min at 32° C.; for Radioligand Displacement (P. americana): known ryanodine receptor agents, result in words
cockroach ryanodine receptor (roach femoral muscle membranes), sequence (Z9HFG3YSF4 1-5141): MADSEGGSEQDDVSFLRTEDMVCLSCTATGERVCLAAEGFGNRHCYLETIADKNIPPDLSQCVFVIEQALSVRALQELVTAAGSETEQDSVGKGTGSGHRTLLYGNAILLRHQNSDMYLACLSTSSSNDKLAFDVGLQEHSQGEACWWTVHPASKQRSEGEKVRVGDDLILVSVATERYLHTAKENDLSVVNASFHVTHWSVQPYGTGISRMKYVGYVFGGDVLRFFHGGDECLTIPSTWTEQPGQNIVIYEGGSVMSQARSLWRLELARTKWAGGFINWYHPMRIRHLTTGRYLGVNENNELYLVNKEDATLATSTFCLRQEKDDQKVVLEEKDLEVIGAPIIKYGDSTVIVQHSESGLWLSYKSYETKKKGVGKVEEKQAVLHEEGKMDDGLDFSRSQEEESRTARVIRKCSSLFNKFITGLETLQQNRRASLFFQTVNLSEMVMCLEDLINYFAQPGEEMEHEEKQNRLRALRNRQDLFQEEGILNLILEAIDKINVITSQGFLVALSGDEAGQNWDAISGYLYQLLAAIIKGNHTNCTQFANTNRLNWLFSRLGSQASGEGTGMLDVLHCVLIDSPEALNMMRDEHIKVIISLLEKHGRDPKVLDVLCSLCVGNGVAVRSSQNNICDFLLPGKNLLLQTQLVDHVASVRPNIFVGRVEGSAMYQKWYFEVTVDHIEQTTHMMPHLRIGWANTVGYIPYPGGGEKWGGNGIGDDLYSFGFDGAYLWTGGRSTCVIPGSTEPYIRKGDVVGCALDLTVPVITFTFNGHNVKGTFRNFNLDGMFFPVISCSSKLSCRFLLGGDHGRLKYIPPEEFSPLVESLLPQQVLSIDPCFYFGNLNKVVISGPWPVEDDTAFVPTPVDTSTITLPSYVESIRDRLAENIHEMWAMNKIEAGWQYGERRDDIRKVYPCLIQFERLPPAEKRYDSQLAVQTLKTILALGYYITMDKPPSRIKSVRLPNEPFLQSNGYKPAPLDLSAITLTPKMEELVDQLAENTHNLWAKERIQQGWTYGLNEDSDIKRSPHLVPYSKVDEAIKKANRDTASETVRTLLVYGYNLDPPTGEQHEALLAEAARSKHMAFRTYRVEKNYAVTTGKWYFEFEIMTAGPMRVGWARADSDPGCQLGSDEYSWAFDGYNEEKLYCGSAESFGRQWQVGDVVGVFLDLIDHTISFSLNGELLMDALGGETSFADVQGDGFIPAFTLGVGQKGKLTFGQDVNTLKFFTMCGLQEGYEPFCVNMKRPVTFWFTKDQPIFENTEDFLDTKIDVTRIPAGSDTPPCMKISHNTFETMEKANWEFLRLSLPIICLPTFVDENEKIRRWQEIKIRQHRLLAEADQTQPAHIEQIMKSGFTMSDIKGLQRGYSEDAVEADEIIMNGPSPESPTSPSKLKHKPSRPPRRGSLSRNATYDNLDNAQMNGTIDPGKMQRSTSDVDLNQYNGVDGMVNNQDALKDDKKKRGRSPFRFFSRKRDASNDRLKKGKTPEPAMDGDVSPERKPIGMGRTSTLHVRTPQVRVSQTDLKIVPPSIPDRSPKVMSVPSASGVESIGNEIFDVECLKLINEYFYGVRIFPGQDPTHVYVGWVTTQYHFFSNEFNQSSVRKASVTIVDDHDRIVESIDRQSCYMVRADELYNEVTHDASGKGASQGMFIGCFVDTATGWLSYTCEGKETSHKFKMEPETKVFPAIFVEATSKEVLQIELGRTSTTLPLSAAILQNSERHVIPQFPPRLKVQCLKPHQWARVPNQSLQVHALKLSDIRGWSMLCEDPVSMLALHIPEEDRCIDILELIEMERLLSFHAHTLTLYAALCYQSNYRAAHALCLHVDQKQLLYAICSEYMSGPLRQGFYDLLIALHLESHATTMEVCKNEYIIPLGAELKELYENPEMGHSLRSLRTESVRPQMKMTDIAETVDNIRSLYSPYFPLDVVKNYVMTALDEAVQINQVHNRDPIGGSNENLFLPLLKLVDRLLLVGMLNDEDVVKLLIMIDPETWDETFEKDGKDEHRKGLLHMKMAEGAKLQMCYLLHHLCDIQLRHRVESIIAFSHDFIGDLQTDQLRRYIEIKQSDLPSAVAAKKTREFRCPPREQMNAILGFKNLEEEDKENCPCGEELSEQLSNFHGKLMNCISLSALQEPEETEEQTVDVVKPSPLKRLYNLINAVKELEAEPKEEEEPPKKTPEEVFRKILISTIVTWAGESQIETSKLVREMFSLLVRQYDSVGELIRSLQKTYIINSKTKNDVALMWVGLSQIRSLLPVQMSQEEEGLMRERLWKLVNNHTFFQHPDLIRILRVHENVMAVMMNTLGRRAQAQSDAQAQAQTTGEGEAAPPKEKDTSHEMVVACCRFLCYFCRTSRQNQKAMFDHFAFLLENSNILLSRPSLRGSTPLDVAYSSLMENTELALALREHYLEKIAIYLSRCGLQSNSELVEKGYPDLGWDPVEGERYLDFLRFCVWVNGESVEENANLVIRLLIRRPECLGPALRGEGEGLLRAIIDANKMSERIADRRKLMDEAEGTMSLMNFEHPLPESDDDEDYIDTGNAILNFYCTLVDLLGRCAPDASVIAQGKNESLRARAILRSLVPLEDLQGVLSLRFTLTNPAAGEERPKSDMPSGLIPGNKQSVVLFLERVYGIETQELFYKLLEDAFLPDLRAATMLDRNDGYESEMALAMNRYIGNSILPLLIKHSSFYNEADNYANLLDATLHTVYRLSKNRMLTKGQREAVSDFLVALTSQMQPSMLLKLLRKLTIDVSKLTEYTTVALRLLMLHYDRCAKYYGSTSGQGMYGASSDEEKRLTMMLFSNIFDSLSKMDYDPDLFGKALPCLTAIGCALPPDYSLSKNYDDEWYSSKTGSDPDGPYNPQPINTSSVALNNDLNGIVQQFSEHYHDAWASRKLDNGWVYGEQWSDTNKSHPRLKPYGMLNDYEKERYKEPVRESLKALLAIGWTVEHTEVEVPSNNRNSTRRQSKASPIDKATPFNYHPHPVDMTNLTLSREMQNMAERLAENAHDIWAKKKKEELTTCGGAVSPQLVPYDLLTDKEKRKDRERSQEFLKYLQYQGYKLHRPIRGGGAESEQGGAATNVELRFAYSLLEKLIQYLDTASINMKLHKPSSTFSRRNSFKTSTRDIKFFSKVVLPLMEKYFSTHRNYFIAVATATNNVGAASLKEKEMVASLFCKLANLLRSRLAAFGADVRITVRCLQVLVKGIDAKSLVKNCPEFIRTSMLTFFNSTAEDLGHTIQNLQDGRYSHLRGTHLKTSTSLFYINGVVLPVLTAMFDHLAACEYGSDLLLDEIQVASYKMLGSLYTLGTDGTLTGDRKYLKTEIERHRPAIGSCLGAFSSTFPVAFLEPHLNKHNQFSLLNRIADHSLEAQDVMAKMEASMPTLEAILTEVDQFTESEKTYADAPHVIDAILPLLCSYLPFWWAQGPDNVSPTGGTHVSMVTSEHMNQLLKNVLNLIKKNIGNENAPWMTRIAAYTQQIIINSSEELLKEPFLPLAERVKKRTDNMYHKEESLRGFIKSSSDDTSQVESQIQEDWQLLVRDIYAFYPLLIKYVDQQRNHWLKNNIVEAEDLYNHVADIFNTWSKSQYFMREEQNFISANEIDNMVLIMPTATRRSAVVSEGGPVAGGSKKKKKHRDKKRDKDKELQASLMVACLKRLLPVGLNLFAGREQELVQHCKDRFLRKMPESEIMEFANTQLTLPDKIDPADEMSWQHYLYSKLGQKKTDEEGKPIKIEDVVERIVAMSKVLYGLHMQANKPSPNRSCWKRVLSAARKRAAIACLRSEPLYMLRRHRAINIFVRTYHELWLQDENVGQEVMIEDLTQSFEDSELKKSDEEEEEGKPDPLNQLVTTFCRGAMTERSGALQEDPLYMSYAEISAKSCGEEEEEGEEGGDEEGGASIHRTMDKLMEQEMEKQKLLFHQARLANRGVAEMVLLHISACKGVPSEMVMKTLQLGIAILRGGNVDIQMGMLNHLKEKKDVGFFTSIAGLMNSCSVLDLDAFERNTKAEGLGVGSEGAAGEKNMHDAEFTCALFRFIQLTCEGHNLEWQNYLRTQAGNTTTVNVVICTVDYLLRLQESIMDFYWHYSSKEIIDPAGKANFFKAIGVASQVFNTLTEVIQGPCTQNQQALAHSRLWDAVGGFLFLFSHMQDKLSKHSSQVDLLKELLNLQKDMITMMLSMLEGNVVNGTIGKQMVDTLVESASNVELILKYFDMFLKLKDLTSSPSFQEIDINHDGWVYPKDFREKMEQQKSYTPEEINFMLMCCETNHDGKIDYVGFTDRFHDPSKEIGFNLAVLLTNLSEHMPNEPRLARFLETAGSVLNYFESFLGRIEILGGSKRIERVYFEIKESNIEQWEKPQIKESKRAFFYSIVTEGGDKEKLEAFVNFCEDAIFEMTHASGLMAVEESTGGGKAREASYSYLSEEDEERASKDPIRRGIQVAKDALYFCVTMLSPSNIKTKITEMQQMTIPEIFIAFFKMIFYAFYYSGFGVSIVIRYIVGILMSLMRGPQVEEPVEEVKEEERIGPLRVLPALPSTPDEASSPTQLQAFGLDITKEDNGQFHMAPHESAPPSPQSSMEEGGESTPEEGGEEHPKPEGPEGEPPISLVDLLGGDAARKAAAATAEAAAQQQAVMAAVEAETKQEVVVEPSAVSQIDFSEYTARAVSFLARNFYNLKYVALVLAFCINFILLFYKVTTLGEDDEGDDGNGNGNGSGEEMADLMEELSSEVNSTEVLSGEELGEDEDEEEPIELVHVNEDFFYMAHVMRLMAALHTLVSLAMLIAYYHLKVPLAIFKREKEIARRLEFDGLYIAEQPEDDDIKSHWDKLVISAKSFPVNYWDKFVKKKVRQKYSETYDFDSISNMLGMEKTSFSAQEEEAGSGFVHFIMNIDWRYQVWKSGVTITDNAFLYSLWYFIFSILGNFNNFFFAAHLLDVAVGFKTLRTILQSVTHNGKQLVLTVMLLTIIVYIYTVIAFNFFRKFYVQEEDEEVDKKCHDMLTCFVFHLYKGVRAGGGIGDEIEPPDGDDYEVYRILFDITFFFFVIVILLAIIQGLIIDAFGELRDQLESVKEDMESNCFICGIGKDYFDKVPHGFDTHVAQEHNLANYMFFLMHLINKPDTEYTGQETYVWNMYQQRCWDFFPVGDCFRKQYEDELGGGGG
Procedure: Mid and hind legs from 6-9 week old cockroaches were excised and immediately placed in liquid nitrogen. Excised legs could be stored at −80° C. for several months, if necessary, prior to further fractionation. Typically, membrane preparations started with approximately 55 g (wet weight) of excised legs. All subsequent steps were carried out at 4° C.
The legs were homogenized on ice using a Polytron (Brinkmann Instruments, Westbury, N.Y.) for 2 min at Setting #3. In order to remove all fragments of cuticle, the homogenate was first passed through two layers of cheesecloth and then through one layer of glass wool overlaid on two layers of cheesecloth. On occasion, the cheesecloth clogged with particulates prior to passing all material through. In such cases, fresh cheesecloth (and glass wool) was used for the remainder of the suspension. […] The supernatant was collected and centrifuged for 30 min at 30,000×gmax. The resulting pellet was resuspended in buffer A (1.5 M KCl, 0.3 M sucrose, 0.5 mM CaCl2, 20 mM Tris-HCl, pH 8.0). The membrane suspension was homogenized by hand (about 25 strokes) using a glass-teflon homogenizer. […] Subsequently, the membrane suspension was adjusted to 4 μg protein/μg by addition of buffer A and then stored in 1 ml aliquots at −80° C.
The assay was begun by addition of 25 μl of roach muscle membranes at 2 μg/μl (prepared by thawing and addition of an equal volume of buffer B), and incubation was carried out for 60 min at 32° C. Assays were carried out in triplicate.
The compound was allowed to pre-incubate with the membranes for 10 min at 32° C. […] Assays were carried out in triplicate.
Following incubation, assays were quenched with ice-cold buffer B and immediately filtered on pre-wefted Unifilter 96 GF/B filter microplates using a Unifilter 96 Harvester (PerkinElmer™, Boston, Mass.). Each assay well was then washed 10 times with buffer B, and collected on the same filter microplate. The filter microplates were then placed in a vacuum oven at 32° C. for 3 h, following which 50 μl of Microscint 0 (PerkinElmer™, Boston, Mass.) was added to each well. Plates were then heat sealed and counted using a Topcount microplate scintillation counter (PerkinElmer™, Boston, Mass.).

[3] = tested on: recombinant Heliothis virescens ryanodine receptor (expressed in Sf9 cells); assay: Calcium release assay in Sf9 cells expressing recombinant Heliothis virescens ryanodine receptor; type: cell-based; conditions: caffeine 10 mM; for calcium responses, Sf9 stably expressing H. virescens ryanodine receptor (FIG. 5): Compound 14 1 μM, Fura-2 AM imaging
Excerpt: (§1) Several drops of a suspension of recombinant Spodoptera frugiperda cell line, Sf9, transiently expressing insect ryanodine receptors were placed on a poly-L-lysine-coated coverslip and allowed to attach. Cells were then rinsed in physiological saline having the following composition (mM): NaCl 130; KCl 5.4; MgCl2 1.2; CaCl2 1.0; NaHCO3 4.2; NaH2P04 7.3; Glucose 10; Sucrose 63; MES 20; pH 6.3. Cells were then bathed in physiological saline containing the calcium sensitive fluoroprobe, Fura-2 AM (2 μM), and Pluronic F127 (0.002%) for 30 min. Cells were rinsed in standard physiololgical saline for at least 15 min prior to testing. Testing was conducted in standard physiological saline, as the cell lines are devoid of functional voltage-gated calcium channels.
(§2) Imaging studies were conducted using a Nikon Diaphot microscope with a 40× oil immersion objective (NA 1.3) Image acquisition and processing was performed using the MetaFluor™ imaging system from Universal Imaging Corporation (West Chester, Pa.) Calcium calibration was carried out using the Grynkiewicz equation with a dissociation constant (Kd) of 145 nM for Fura-2 (Grynkiewicz et al., 1985). Cell-attached coverslips were placed in a sealed chamber with physiological saline continuously perfused across the cells using a peristaltic pump. Test compounds solubilized in physiological saline were applied by switching the perfusate source.
(§3) For studies involving the stable recombinant Spodoptera frugiperda cell line, Sf9, (other cell lines could also be used such as Sf21, S2, etc) expressing an insect ryanodine receptor from Drosophila melanogaster, or Heliothis virescens (alternatively receptors from other species such as Myzus persicae, Peregrinus maidis, Aphis gossypii, etc) were grown in T75 (or other appropriate sized) flasks in supplemented Grace's insect medium. Cells were maintained in an incubator at 22° C. until testing. Cells were suspension-loaded with the calcium sensitive fluoroprobe, Fura-2 AM (1-2 μM) and Pluronic F127 (0.002%) in culture medium for 30 minutes under agitation. Cells were then centrifuged and the pellet resuspended in physiological saline having the following composition (mM): NaCl 130; KCl 5.4; MgCl2 1.2; CaCl2 1.0; NaHCO3 4.2; NaH2P04 7.3; Glucose 10; Sucrose 63; MES 20; pH 6.3 at approximately 150,000-200,000 cells per well (96-well plate). After a 30 minute equilibration period the cell plate was tested using a Molecular Devices' FlexStation™ system with dual wavelength excitation (340 and 380 nm) and fluorescence emission measured at 510 nm. Test and control samples were added using integrated fluidics and the intracellular calcium monitored over a 2 minute period.

[4] = tested on: control Sf9 cells without DNA / wild type Sf9; assay: Calcium response in control or wild-type Sf9 cells lacking recombinant receptor; type: cell-based, Spodoptera frugiperda; conditions: for calcium responses in control cells without DNA (FIG. 3): Compound 16 10 and 100 nM
Excerpt: as §1, §2, §3

[5] = target: T1, recombinant Drosophila melanogaster ryanodine receptor (expressed in Sf9 cells) (Drosophila melanogaster, UniProt Q24498); type: cell-based; conditions: for Calcium Release (D. melanogaster): known ryanodine receptor agents, transiently or stably expressed in Sf9 cells, result in words
T1 construct: His tag + attB1 + Lox footprint (N-terminal vector extension; present only if the Cre-Lox vector was the one used) (N); expressed in transfected cells
Excerpt: as §1
Cell-attached coverslips were placed in a sealed chamber with physiological saline continuously perfused across the cells using a peristaltic pump. Test compounds solubilized in physiological saline were applied by switching the perfusate source.
as §3

SMILES	Calcium Release Threshold (nM) P. americana [1]	IC50 [2]	also measured
CNC(=O)c1cc(Br)cc(C)c1NC(=O)c1cc(C(F)(F)F)nn1-c1ncccc1Cl [Cpd 15]	<300 nM	< 300 nM	–
Cn1c(=O)c2c(ncn2C)n(C)c1=O [Caffeine]	–	–	Calcium Release (P. americana) [1]: Agonist; cytosolic [Ca2+], Sf9 transiently expressing H. virescens ryanodine receptor (FIG. 4) ([3]; 72 hr post-transfection, Cpd 5 3 μM): increase in cytosolic [Ca^2+]; calcium responses, Sf9 stably expressing H. virescens ryanodine receptor (FIG. 5) [3]: calcium responses elicited; caffeine dose response, wild-type Sf9 cells (FIG. 6) ([4]; Sf9-WT, FlexStation, Fura-2): insensitive; response of lipid only (-DNA) or non-transfected cells ([4]; caffeine 10 mM): do not exhibit significant response; calcium responses in control cells without DNA (FIG. 4) ([4]; caffeine 10 mM, Compound 5 3 μM): No significant calcium responses; calcium responses in control cells without DNA (FIG. 3) ([4]; caffeine 10 mM): No significant calcium responses
Cc1cc(Br)cc(C(=O)NCC(C)C)c1NC(=O)c1cc(C(F)(F)F)nn1-c1ccccc1Cl [Cpd 3]	–	< 300 nM	–
Cc1cc(Cl)cc(C(=O)NC(C)C)c1NC(=O)c1cc(Br)nn1-c1ncccc1Cl [Cpd 13]	–	< 300 nM	–
Cc1cc(Br)cc(C(=O)NC(C)C)c1NC(=O)c1cc(C(F)(F)F)nn1-c1ncccc1Cl [Cpd 9]	<300 nM	< 300 nM	–
Cc1cccc(C(=O)NC(C)C)c1NC(=O)c1cc(Br)nn1-c1ncccc1Cl [Cpd 7]	<300 nM	< 300 nM	–
COc1cccc2c1C(=O)c1c(O)c3c(c(O)c1C2=O)C[C@@](O)(C(=O)CO)C[C@@H]3O[C@H]1C[C@H](N)[C@H](O)[C@H](C)O1.Cl [Doxorubicin, reference compound]	–	–	Calcium Release (P. americana) [1]: Inactive
Cc1cc(Cl)cc(C(=O)NC(C)C)c1NC(=O)c1cc(C(F)(F)F)nn1-c1ncccc1Cl [Cpd 10]	<300 nM	< 300 nM	–
CCNC(=O)c1cc(Br)cc(Br)c1NC(=O)c1cc(C(F)(F)F)nn1-c1ncccc1Cl [Cpd 18]	–	< 300 nM	–
CNC(=O)c1cc(Cl)cc(C)c1NC(=O)c1cc(Cl)nn1-c1ncccc1Cl [Cpd 17]	<300 nM	< 300 nM	–
Cc1cccc(C(=O)NC(C)C)c1NC(=O)c1cc(Cl)nn1-c1ncccc1Cl [Cpd 8]	<300 nM	< 300 nM	–
[3H]c1cc(C)c(NC(=O)c2cc(C(F)(F)F)nn2-c2ccccc2F)c(C(=O)NC(C)C)c1 [Cpd 1, 1-(2-Fluorophenyl)-N-[2-methyl-4-tritio-6-[[(1-methylethyl)amino]carbonyl]phenyl]-3-(trifluoromethyl)-1H-pyrazole-5-carboxamide]	<1000 nM	< 300 nM	Calcium Release Threshold (nM) D. melanogaster [5]: <300 nM
CC(C)[C@@]1(O)[C@@H](OC(=O)c2ccc[nH]2)[C@@]2(O)[C@@]3(C)C[C@]4(O)O[C@@]5([C@H](O)[C@@H](C)CC[C@]35O)[C@@]2(O)[C@@]14C [Ryanodine]	–	–	Calcium Release (P. americana) [1]: Antagonist; Calcium Release (D. melanogaster) [5]: Antagonist; Radioligand Displacement (P. americana) [2]: Inactive
Cc1cc(Br)cc(C(=O)NC(C)C)c1NC(=O)c1cc(Br)nn1-c1ncccc1Cl [Cpd 12]	<300 nM	< 300 nM	–
CNC(=O)c1cc(Cl)cc(C)c1NC(=O)c1cc(C(F)(F)F)nn1-c1ncccc1Cl [Cpd 11]	<300 nM	< 300 nM	Calcium Release Threshold (nM) D. melanogaster [5]: <300 nM
N.N.N.N.N.N.N.N.N.N.N.N.N.N.[Cl-].[Cl-].[Cl-].[Cl-].[Cl-].[Cl-].[O-2].[O-2].[Ru+3].[Ru+3].[Ru+4] [Ruthenium Red, reference compound]	–	–	Calcium Release (P. americana) [1]: Inactive; Calcium Release (D. melanogaster) [5]: Antagonist; Radioligand Displacement (P. americana) [2]: Displacer
CNC(=O)c1cccc(C)c1NC(=O)c1cc(C(F)(F)F)nn1-c1ncccc1Cl [Cpd 6]	<300 nM	< 300 nM	–
CNC(=O)c1cc(Cl)cc(C)c1NC(=O)c1cc(Br)nn1-c1ncccc1Cl [Cpd 14]	<300 nM	< 300 nM	Calcium Release Threshold (nM) D. melanogaster [5]: <300 nM; calcium responses, Sf9 stably expressing H. virescens ryanodine receptor (FIG. 5) [3]: calcium responses elicited
Oc1c(Br)cc2[nH]c3cnccc3c2c1Br [Bromoeudistomin D, reference compound]	–	–	Calcium Release (P. americana) [1]: Agonist
Cc1cc(Cl)cc(C(=O)NC(C)C)c1NC(=O)c1cc(Cl)nn1-c1ncccc1Cl [Cpd 16]	<300 nM	< 300 nM	Calcium Release Threshold (nM) D. melanogaster [5]: <300 nM; calcium responses, Sf9 transiently expressing D. melanogaster ryanodine receptor (FIG. 3) ([5]; 96 hr post-transfection, caffeine 10 mM, Compound 16 10 and 100 nM): calcium responses elicited; calcium responses in control cells without DNA (FIG. 3) ([4]; caffeine 10 mM): No significant calcium responses
Cc1cccc(C(=O)NC(C)C)c1NC(=O)c1cc(C(F)(F)F)nn1-c1ccccc1Cl [Cpd 2]	<300 nM	< 300 nM	Calcium Release Threshold (nM) D. melanogaster [5]: <300 nM
